From the NIST ThermoML archive (doi:10.1016/j.jct.2017.07.004)

Test: xn = mol fraction of the nth substance listed
Conditions: 100 kPa, Liquid; for viscosity: Concentric cylinders viscometry; for mass density: Vibrating tube method

CCC=O [propanal] + CCC(C)O
Conditions | mass density [kg/m3] | viscosity [mPa·s]
293.15 K, x1 = 0.0811 | 810.5 | 3.49
293.15 K, x1 = 0.16 | 813.1 | 3.29
293.15 K, x1 = 0.24 | 815.1 | 3.06
293.15 K, x1 = 0.35 | 817 | 2.72
293.15 K, x1 = 0.44 | 817.8 | 2.42
293.15 K, x1 = 0.56 | 817.7 | 2
293.15 K, x1 = 0.6499 | 816.7 | 1.67
293.15 K, x1 = 0.7401 | 814.7 | 1.34
293.15 K, x1 = 0.8501 | 810.8 | 0.92
293.15 K, x1 = 0.9401 | 806.5 | 0.58
293.15 K, x1 = 1 | 802.4 | 0.34
298.15 K, x1 = 0.0811 | 806 | 2.89
298.15 K, x1 = 0.16 | 808.4 | 2.73
298.15 K, x1 = 0.24 | 810.3 | 2.55
298.15 K, x1 = 0.35 | 811.8 | 2.27
298.15 K, x1 = 0.44 | 812.3 | 2.03
298.15 K, x1 = 0.56 | 811.8 | 1.68
298.15 K, x1 = 0.6499 | 810.5 | 1.41
298.15 K, x1 = 0.7401 | 808.4 | 1.14
298.15 K, x1 = 0.8501 | 804.5 | 0.8
298.15 K, x1 = 0.9401 | 800 | 0.52
298.15 K, x1 = 1 | 796.2 | 0.33
303.15 K, x1 = 0.0811 | 801.1 | 2.41
303.15 K, x1 = 0.16 | 803.2 | 2.27
303.15 K, x1 = 0.24 | 804.8 | 2.12
303.15 K, x1 = 0.35 | 806 | 1.89
303.15 K, x1 = 0.44 | 806.5 | 1.69
303.15 K, x1 = 0.56 | 805.7 | 1.41
303.15 K, x1 = 0.6499 | 804.3 | 1.19
303.15 K, x1 = 0.7401 | 802 | 0.97
303.15 K, x1 = 0.8501 | 798 | 0.69
303.15 K, x1 = 0.9401 | 794 | 0.46
303.15 K, x1 = 1 | 790.3 | 0.31
308.15 K, x1 = 0.0811 | 796.4 | 2.02
308.15 K, x1 = 0.16 | 798 | 1.9
308.15 K, x1 = 0.24 | 799.4 | 1.77
308.15 K, x1 = 0.35 | 800.3 | 1.58
308.15 K, x1 = 0.44 | 800.4 | 1.41
308.15 K, x1 = 0.56 | 799.5 | 1.18
308.15 K, x1 = 0.6499 | 798.1 | 1.01
308.15 K, x1 = 0.7401 | 795.9 | 0.82
308.15 K, x1 = 0.8501 | 791.8 | 0.6
308.15 K, x1 = 0.9401 | 788 | 0.42
308.15 K, x1 = 1 | 784.5 | 0.3
313.15 K, x1 = 0.0811 | 791.7 | 1.71
313.15 K, x1 = 0.16 | 793 | 1.61
313.15 K, x1 = 0.24 | 794 | 1.5
313.15 K, x1 = 0.35 | 794.6 | 1.34
313.15 K, x1 = 0.44 | 794.6 | 1.2
313.15 K, x1 = 0.56 | 793.5 | 1.01
313.15 K, x1 = 0.6499 | 792 | 0.86
313.15 K, x1 = 0.7401 | 789.8 | 0.72
313.15 K, x1 = 0.8501 | 786 | 0.53
313.15 K, x1 = 0.9401 | 782.4 | 0.38
313.15 K, x1 = 1 | 779 | 0.28
318.15 K, x1 = 0.0811 | 786.8 | 1.45
318.15 K, x1 = 0.16 | 787.9 | 1.36
318.15 K, x1 = 0.24 | 788.6 | 1.27
318.15 K, x1 = 0.35 | 789.1 | 1.13
318.15 K, x1 = 0.44 | 788.8 | 1.02
318.15 K, x1 = 0.56 | 787.6 | 0.86
318.15 K, x1 = 0.6499 | 786.1 | 0.74
318.15 K, x1 = 0.7401 | 783.8 | 0.62
318.15 K, x1 = 0.8501 | 780 | 0.47
318.15 K, x1 = 0.9401 | 776.5 | 0.35
318.15 K, x1 = 1 | 773.5 | 0.27
323.15 K, x1 = 0.0811 | 781.9 | 1.25
323.15 K, x1 = 0.16 | 782.6 | 1.17
323.15 K, x1 = 0.24 | 783.1 | 1.09
323.15 K, x1 = 0.35 | 783.2 | 0.97
323.15 K, x1 = 0.44 | 782.8 | 0.87
323.15 K, x1 = 0.56 | 781.5 | 0.74
323.15 K, x1 = 0.6499 | 779.8 | 0.64
323.15 K, x1 = 0.7401 | 777.7 | 0.54
323.15 K, x1 = 0.8501 | 774.3 | 0.42
323.15 K, x1 = 0.9401 | 770.9 | 0.32
323.15 K, x1 = 1 | 768.2 | 0.25
